Data reported in patent US9340547B2, “Pyrrolotriazinone derivatives as inhibitors P13K” (Almirall, S.A., priority 2011, dated 2016).

Each molecule was assayed against T1, PI3Kδ (PI3 Kd) (Homo sapiens, UniProt O00329) (assay: PI3K HTRF enzymatic inhibition assay (cell-free), PI3Kd).
T1 construct: purchased Millipore
Format: biochemical
Experimental: PI3K α, β, δ and γ Enzymatic Inhibition Assays
Compounds were screened for their ability to inhibit PI3Kα (PI3Kα), PI3Kβ (PI3 Kb), PI3Kδ (PI3 Kd) and PI3Kγ (PI3 Kg) using a cell-free based PI3K HTRF™ assay (Millipore, ref. #33-017) All reagents to perform the reactions were prepared according to the manufacturer protocol. All PI3K enzymes were recombinant and were purchased at Millipore.
These concentrations were final in the assay. • 3) A reservoir plate containing Adenosine TriPhosphate (ATP) diluted in the Millipore kit buffer was prepared for each isoform. […] Incubation was done for 8 minutes (for all four isoforms) then the reaction was stopped by addition of the Stop solution. The Detection solution was added. These solutions were prepared previously according to the kit specifications.

T1 sequence (O00329 whole entry): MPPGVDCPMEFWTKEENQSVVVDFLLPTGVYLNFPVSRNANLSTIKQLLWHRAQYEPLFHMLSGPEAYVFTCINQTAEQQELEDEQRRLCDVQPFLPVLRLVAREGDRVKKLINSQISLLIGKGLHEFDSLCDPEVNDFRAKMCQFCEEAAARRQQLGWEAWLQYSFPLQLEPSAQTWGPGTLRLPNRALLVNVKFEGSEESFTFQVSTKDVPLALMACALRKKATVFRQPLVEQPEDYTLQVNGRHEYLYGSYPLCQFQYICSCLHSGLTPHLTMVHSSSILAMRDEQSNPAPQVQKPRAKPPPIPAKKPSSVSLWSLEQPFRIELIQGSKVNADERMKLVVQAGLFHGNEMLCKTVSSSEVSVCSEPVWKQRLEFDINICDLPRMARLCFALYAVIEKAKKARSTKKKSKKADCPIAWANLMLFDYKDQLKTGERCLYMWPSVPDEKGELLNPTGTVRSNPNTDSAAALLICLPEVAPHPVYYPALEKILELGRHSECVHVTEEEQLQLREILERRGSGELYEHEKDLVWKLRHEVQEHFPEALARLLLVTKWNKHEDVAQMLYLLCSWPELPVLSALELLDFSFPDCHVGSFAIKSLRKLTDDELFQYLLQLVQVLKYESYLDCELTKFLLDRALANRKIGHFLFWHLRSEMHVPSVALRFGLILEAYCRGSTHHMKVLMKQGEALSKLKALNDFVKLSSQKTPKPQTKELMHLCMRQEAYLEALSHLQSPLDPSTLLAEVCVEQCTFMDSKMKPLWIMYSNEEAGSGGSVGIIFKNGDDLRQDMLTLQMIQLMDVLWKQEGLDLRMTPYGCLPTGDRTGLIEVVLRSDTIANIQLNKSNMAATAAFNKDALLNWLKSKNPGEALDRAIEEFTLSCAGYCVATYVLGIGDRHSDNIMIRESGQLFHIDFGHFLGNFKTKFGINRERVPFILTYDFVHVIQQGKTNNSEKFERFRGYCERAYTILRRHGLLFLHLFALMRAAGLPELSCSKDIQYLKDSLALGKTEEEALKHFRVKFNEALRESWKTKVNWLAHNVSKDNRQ
T1 sequence (P27986 whole entry partner): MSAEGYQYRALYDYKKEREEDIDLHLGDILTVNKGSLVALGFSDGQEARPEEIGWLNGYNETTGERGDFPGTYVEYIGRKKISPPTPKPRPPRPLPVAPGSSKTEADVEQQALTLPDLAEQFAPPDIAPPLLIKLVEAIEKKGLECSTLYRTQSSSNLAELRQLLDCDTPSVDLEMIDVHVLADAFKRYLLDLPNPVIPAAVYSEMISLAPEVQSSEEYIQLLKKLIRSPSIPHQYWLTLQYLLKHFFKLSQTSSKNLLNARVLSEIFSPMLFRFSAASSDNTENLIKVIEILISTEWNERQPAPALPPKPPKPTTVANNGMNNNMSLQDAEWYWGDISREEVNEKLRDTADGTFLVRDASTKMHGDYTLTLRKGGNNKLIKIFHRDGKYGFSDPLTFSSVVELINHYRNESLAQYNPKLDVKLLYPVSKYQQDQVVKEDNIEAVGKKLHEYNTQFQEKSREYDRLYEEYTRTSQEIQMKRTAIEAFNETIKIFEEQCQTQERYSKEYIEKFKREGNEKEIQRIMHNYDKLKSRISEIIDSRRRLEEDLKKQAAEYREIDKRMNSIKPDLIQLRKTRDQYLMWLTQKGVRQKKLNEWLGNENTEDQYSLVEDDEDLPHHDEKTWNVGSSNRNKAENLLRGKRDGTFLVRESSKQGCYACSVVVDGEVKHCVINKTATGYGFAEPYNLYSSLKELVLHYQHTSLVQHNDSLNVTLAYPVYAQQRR

| Compound | IC50 [nM] |
| --- | --- |
| C[C@H](Nc1ncnc(N)c1C#N)c1nn2ccc(Br)c2c(=O)[nH]1 [Example 142, (S)-4-Amino-6-(1-(5-bromo-4-oxo-3,4-dihydropyrrolo[1,2-f][1,2,4]triazin-2-yl)ethylamino)pyrimidine-5-carbonitrile] | 5 |
| CCCOC(=O)c1ccn2nc(C(C)Nc3ncnc(N)c3C#N)n(-c3ccccc3)c(=O)c12 [Example 164, (S)-Propyl 2-(1-(6-amino-5-cyanopyrimidin-4-ylamino)ethyl)-4-oxo-3-phenyl-3,4-dihydropyrrolo[1,2-f][1,2,4]triazine-5-carboxylate] | 67 |
| C[C@H](Nc1ncnc(N)c1C#N)c1nn2cccc2c(=O)n1-c1cccc(O)c1 [Example 179] | 7 |
| C[C@H](Nc1ncnc(N)c1C#N)c1nn2ccnc2c(=O)n1-c1ccccc1 [Example 50, (S)-4-amino-6-(1-(4-oxo-3-phenyl-3,4-dihydroimidazo[1,2-f][1,2,4]triazin-2-yl)ethylamino)pyrimidine-5-carbonitrile] | 57 |
| C[C@H](Nc1nc(N)nc2[nH]cnc12)c1nn2cccc2c(=O)n1-c1ccccc1 [Example 21, (S)-2-(1-(2-Amino-9H-purin-6-ylamino)ethyl)-3-phenylpyrrolo[1,2-f][1,2,4]triazin-4(3H)-one] | 5 |
| C[C@H](Nc1ncnc(N)c1C#N)c1nn2ccc(C(F)F)c2c(=O)n1-c1ccccc1 [Example 47, (S)-4-Amino-6-(1-(5-(difluoromethyl)-4-oxo-3-phenyl-3,4-dihydropyrrolo[1,2-f][1,2,4]triazin-2-yl)ethylamino)pyrimidine-5-carbonitrile] | 1 |
| C[C@H](Nc1ncnc(N)c1C#N)c1nn2ccc(C(F)(F)F)c2c(=O)n1C1CCCOC1 (single isomer, unassigned) [Example 133] | 11 |
| C[C@H](Nc1ncnc2[nH]cnc12)c1nn2cccc2c(=O)n1-c1cc(F)cc(F)c1 [Example 37, (S)-2-(1-(9H-Purin-6-ylamino)ethyl)-3-(3,5-difluorophenyl)pyrrolo[1,2-f][1,2,4]triazin-4(3H)-one] | 15 |
| C[C@H](Nc1ncnc2[nH]cnc12)c1nn2ccc(C#N)c2c(=O)n1-c1ccccc1 [Example 61, (S)-2-(1-(9H-Purin-6-ylamino)ethyl)-4-oxo-3-phenyl-3,4-dihydropyrrolo[1,2-f][1,2,4]triazine-5-carbonitrile] | 6 |
| C[C@H](Nc1ncnc(N)c1C#N)c1nn2ccc(C#N)c2c(=O)n1-c1cccc(C(F)(F)F)c1 [Example 176, (S)-2-(1-(6-Amino-5-cyanopyrimidin-4-ylamino)ethyl)-4-oxo-3-(3-(trifluoromethyl)phenyl)-3,4-dihydropyrrolo[1,2-f][1,2,4]triazine-5-carbonitrile] | 32 |
| Cc1ccc2c(=O)n(-c3ccccc3)c([C@H](C)Nc3ncnc(N)c3C#N)nn12 [Example 71, (S)-4-Amino-6-(1-(7-methyl-4-oxo-3-phenyl-3,4-dihydropyrrolo[1,2-f][1,2,4]triazin-2-yl)ethylamino)pyrimidine-5-carbonitrile] | 9 |
| Cc1ccccc1-n1c(CNc2ncnc(N)c2C#N)nn2cccc2c1=O [Example 158, 4-Amino-6-((4-oxo-3-o-tolyl-3,4-dihydropyrrolo[1,2-f][1,2,4]triazin-2-yl)methylamino)pyrimidine-5-carbonitrile] | 43 |
| N#Cc1c(N)ncnc1N[C@@H](CO)c1nn2cccc2c(=O)n1-c1cc(F)cc(F)c1 [Example 157, (R)-4-Amino-6-(1-(3-(3,5-difluorophenyl)-4-oxo-3,4-dihydropyrrolo[1,2-f][1,2,4]triazin-2-yl)-2-hydroxyethylamino)pyrimidine-5-carbonitrile] | 66 |
| C[C@H](Nc1nc(N)nc2[nH]cnc12)c1nn2ccnc2c(=O)n1-c1ccccc1 [Example 64, (S)-2-(1-(2-Amino-9H-purin-6-ylamino)ethyl)-3-phenylimidazo[1,2-f][1,2,4]triazin-4(3H)-one] | 69 |
| Cc1ccccc1-n1c(Cn2cnc3c(N)ncnc32)nn2ccnc2c1=O [Example 31, 2-((6-amino-9H-purin-9-yl)methyl)-3-o-tolylimidazo[1,2-f][1,2,4]triazin-4(3H)-one] | 6570 |
| C[C@H](Nc1ncnc(N)c1C#N)c1nn2ccc(Br)c2c(=O)n1-c1ccccc1 [Example 144, (S)-4-Amino-6-(1-(5-bromo-4-oxo-3-phenyl-3,4-dihydropyrrolo[1,2-f][1,2,4]triazin-2-yl)ethylamino)pyrimidine-5-carbonitrile] | 1 |
| Cc1ccccc1-n1c(Cn2cnc3c(N)ncnc32)nn2ccc(C(F)(F)F)c2c1=O [Example 25, 2-((6-Amino-9H-purin-9-yl)methyl)-3-o-tolyl-5-(trifluoromethyl)pyrrolo[1,2-f][1,2,4]triazin-4(3H)-one] | 347 |

| Compound | IC50 [nM] |
| --- | --- |
| C[C@H](Nc1ncnc(N)c1C#N)c1nn2cccc2c(=O)n1-c1ccccn1 [Example 43, (S)-4-Amino-6-(1-(4-oxo-3-(pyridin-2-yl)-3,4-dihydropyrrolo[1,2-f][1,2,4]triazin-2-yl)ethylamino)pyrimidine-5-carbonitrile] | 11 |
| C[C@H](Nc1ncnc2[nH]cnc12)c1nn2cccc2c(=O)n1-c1ccccc1 [Example 20, (S)-2-(1-(9H-Purin-6-ylamino)ethyl)-3-phenylpyrrolo[1,2-f][1,2,4]triazin-4(3H)-one] | 11 |
| C[C@H](Nc1ncnc(N)c1C#N)c1nn2ccc(CCO)c2c(=O)n1-c1ccccc1 [Example 159, (S)-4-Amino-6-(1-(5-(2-hydroxyethyl)-4-oxo-3-phenyl-3,4-dihydropyrrolo[1,2-f][1,2,4]triazin-2-yl)ethylamino)pyrimidine-5-carbonitrile] | 35 |
| Cc1ccn2nc([C@H](C)Nc3ncnc4[nH]cnc34)n(-c3ccccc3)c(=O)c12 [Example 68, (S)-2-(1-(9H-Purin-6-ylamino)ethyl)-5-methyl-3-phenyl pyrrolo[1,2-f][1,2,4]triazin-4(3H)-one] | 1 |
| N#Cc1c(N)ncnc1N[C@@H](CCO)c1nn2cccc2c(=O)[nH]1 [Example 165, (S)-4-Amino-6-(3-hydroxy-1-(4-oxo-3,4-dihydropyrrolo[1,2-f][1,2,4]triazin-2-yl)propylamino)pyrimidine-5-carbonitrile] | 670 |
| C[C@H](Nc1ncnc(N)c1F)c1nn2ccc(C(F)F)c2c(=O)n1-c1cc(F)cc(F)c1 [Example 102, (S)-2-(1-(6-Amino-5-fluoropyrimidin-4-ylamino)ethyl)-5-(difluoromethyl)-3-(3,5-difluorophenyl)pyrrolo[1,2-f][1,2,4]triazin-4(3H)-one] | 42 |
| Cc1ccccc1-n1c(Cn2cnc3c(N)ncnc32)nn2ccc(Cl)c2c1=O [Example 1, 2-((6-Amino-9H-purin-9-yl)methyl)-5-chloro-3-o-tolylpyrrolo[1,2-f][1,2,4]triazin-4(3H)-one] | 120 |
| Nc1ncnc2c1ncn2Cc1nn2ccc(Cl)c2c(=O)n1Cc1ccccc1 [Example 29] | 376 |
| C[C@H](Nc1ncnc(N)c1C#N)c1nn2cccc2c(=O)n1C1CCC1 [Example 138, (S)-4-Amino-6-(1-(3-cyclobutyl-4-oxo-3,4-dihydropyrrolo[1,2-f][1,2,4]triazin-2-yl)ethylamino)pyrimidine-5-carbonitrile] | 8 |
| Cc1nc(-c2ccn3nc([C@H](C)Nc4ncnc5[nH]cnc45)n(-c4cc(F)cc(F)c4)c(=O)c23)no1 [Example 125, (S)-2-(1-(9H-Purin-6-ylamino)ethyl)-3-(3,5-difluorophenyl)-5-(5-methyl-1,2,4-oxadiazol-3-yl)pyrrolo[1,2-f][1,2,4]triazin-4(3H)-one] | 90 |
| C[C@H](Nc1ncnc(N)c1C#N)c1nn2ccc(C#N)c2c(=O)n1C1CCCOC1 (single isomer, unassigned) [Example 129] | 38 |
| Cc1cc(-n2c([C@H](C)Nc3ncnc(N)c3C#N)nn3cccc3c2=O)n[nH]1 [Example 127, (S)-4-Amino-6-(1-(3-(5-methyl-1H-pyrazol-3-yl)-4-oxo-3,4-dihydropyrrolo[1,2-f][1,2,4]triazin-2-yl)ethylamino)pyrimidine-5-carbonitrile] | 89 |
| C[C@H](Nc1ncnc(N)c1C#N)c1nn2cc(F)cc2c(=O)n1-c1ccccc1 [Example 75, (S)-4-Amino-6-(1-(6-fluoro-4-oxo-3-phenyl-3,4-dihydropyrrolo[1,2-f][1,2,4]triazin-2-yl)ethylamino)pyrimidine-5-carbonitrile] | 17 |
| C[C@H](Nc1ccnc2ccnn12)c1nn2cccc2c(=O)n1-c1ccccc1 [Example 54, (S)-3-Phenyl-2-(1-(pyrazolo[1,5-a]pyrimidin-7-ylamino)ethyl)pyrrolo[1,2-f][1,2,4]triazin-4(3H)-one] | 60 |
| N#Cc1c(N)ncnc1N1CC(F)(F)C[C@H]1c1nn2cccc2c(=O)n1-c1ccccc1 [Example 73, (S)-4-Amino-6-(4,4-difluoro-2-(4-oxo-3-phenyl-3,4-dihydropyrrolo[1,2-f][1,2,4]triazin-2-yl)pyrrolidin-1-yl)pyrimidine-5-carbonitrile] | 31 |
| O=c1c2cccn2nc([C@H](CO)Nc2ncnc3[nH]cnc23)n1-c1ccccc1 [Example 62, (R)-2-(1-(9H-Purin-6-ylamino)-2-hydroxyethyl)-3-phenylpyrrolo[1,2-f][1,2,4]triazin-4(3H)-one] | 73 |
| C[C@H](Nc1ncnc(N)c1C#N)c1nn2cccc2c(=O)n1-c1cn[nH]c1 [Example 124, (S)-4-Amino-6-(1-(4-oxo-3-(1H-pyrazol-4-yl)-3,4-dihydropyrrolo[1,2-f][1,2,4]triazin-2-yl)ethylamino)pyrimidine-5-carbonitrile] | 11 |
